According to ChEMBL document CHEMBL3509421, “FDA drug approval package for diclofenac acid (NDA 22-202 CP, Ref ID: 3374276)”:

How the values were obtained:
[1] = Mean Cmax of diclofenac following single oral dosing of 50 mg diclofenac potassium soft gelatin capsule in healthy human; format: ADME, organism-based; design: dietary status Fasting, dose 50 mg, dosed compound id 2.46815e+06, dosed compound name Diclofenac potassium, gender Mixed, regimen Single, route oral, study doses 25/50 mg; details: both, plasma
[2] = Geometric mean for AUC (0-t) of diclofenac following single oral dosing of 35 mg Zorvolex capsule in healthy human; format: ADME, organism-based; design: dietary status Fed, dose 35 mg, dosed compound id 2.46815e+06, dosed compound name Diclofenac, gender Mixed, regimen Single, route oral; details: both, plasma
[3] = Median tmax of diclofenac following single oral dosing of 18 mg Zorvolex capsule in healthy human; format: ADME, organism-based; design: dietary status Fasting, dose 18 mg, dosed compound id 2.46815e+06, dosed compound name Diclofenac, gender Mixed, regimen Single, route oral; details: both, plasma, read-out: Median Tmax
[4] = Geometric mean for AUC (0-infinity) of diclofenac following single oral dosing of 35 mg Zorvolex capsule in healthy human; format: ADME, organism-based; design: time infinity, dietary status Fed, dose 35 mg, dosed compound id 2.46815e+06, dosed compound name Diclofenac, gender Mixed, regimen Single, route oral; details: both, plasma, read-out: AUC (0-infinity)
[5] = Geometric mean for AUC (0-t) of diclofenac following single oral dosing of 50 mg Cataflam tablet in healthy human; format: ADME, organism-based; design: dietary status Fasting, dose 50 mg, dosed compound id 2.46815e+06, dosed compound name Diclofenac potassium, gender Mixed, regimen Single, route oral; details: both, plasma
[6] = Mean AUC (0-infinity) value of diclofenac following single oral dosing of 35 mg Zorvolex capsule in healthy human; format: ADME, organism-based; design: time infinity, dietary status Fed, dose 35 mg, dosed compound id 2.46815e+06, dosed compound name Diclofenac, gender Mixed, regimen Single, route oral; details: both, plasma, read-out: AUC (0-infinity)
[7] = (§1) Geometric mean for apparent terminal elimination rate constant of diclofenac following single oral dosing of 50 mg Cataflam tablet in healthy human; format: ADME, organism-based, Plasma; design: dietary status Fasting, dose 50 mg, dosed compound id 2.46815e+06, dosed compound name Diclofenac potassium, gender Mixed, regimen Single, route oral; details: in vivo
[8] = Maximum tmax of diclofenac following single oral dosing of 35 mg Zorvolex capsule in healthy human; format: ADME, organism-based, Plasma; design: dietary status Fed, dose 35 mg, dosed compound id 2.46815e+06, dosed compound name Diclofenac, gender Mixed, regimen Single, route oral; details: in vivo
[9] = Mean AUC (0-infinity) of diclofenac following single oral dosing of 25 mg diclofenac potassium softgel capsule in healthy human; format: ADME, organism-based; design: time infinity, dietary status Fasting, dose 25 mg, dosed compound id 2.46815e+06, dosed compound name Diclofenac potassium, gender Mixed, regimen Single, route oral, study doses 25/50 mg; details: both, plasma, read-out: AUC (0-infinity)
[10] = Median tmax of diclofenac following single oral dosing of 35 mg Zorvolex capsule in healthy human; format: ADME, organism-based; design: dietary status Fasting, dose 35 mg, dosed compound id 2.46815e+06, dosed compound name Diclofenac, gender Mixed, regimen Single, route oral; details: both, plasma, read-out: Median Tmax
[11] = Mean AUC(0-infinity) of diclofenac following single oral dosing of 50 mg Cataflam in healthy human; format: ADME, organism-based; design: time infinity, dietary status Fasting, dose 50 mg, dosed compound id 2.46815e+06, dosed compound name Diclofenac potassium, gender Mixed, regimen Single, route oral, study doses 50 mg; details: both, plasma, read-out: AUC (0-infinity)
[12] = Minimum tmax of diclofenac following single oral dosing of 35 mg Zorvolex capsule in healthy human; format: ADME, organism-based, Plasma; design: dietary status Fed, dose 35 mg, dosed compound id 2.46815e+06, dosed compound name Diclofenac, gender Mixed, regimen Single, route oral; details: in vivo
[13] = Mean Cmax of diclofenac following single oral dosing of 25 mg diclofenac potassium softgel capsule in healthy human; format: ADME, organism-based; design: dietary status Fasting, dose 25 mg, dosed compound id 2.46815e+06, dosed compound name Diclofenac potassium, gender Mixed, regimen Single, route oral, study doses 25/50 mg; details: both, plasma
[14] = Geometric mean for AUC (0-infinity) of diclofenac following single oral dosing of 50 mg Cataflam tablet in healthy human; format: ADME, organism-based, Plasma; design: time infinity, dietary status Fasting, dose 50 mg, dosed compound id 2.46815e+06, dosed compound name Diclofenac potassium, gender Mixed, regimen Single, route oral; details: in vivo
[15] = (§2) Mean AUC (0-t) of diclofenac following single oral dosing of 25 mg diclofenac potassium softgel capsule in healthy human; format: ADME, organism-based; design: dietary status Fed, dose 25 mg, dosed compound id 2.46815e+06, dosed compound name Diclofenac potassium, gender Mixed, regimen Single, route oral, study doses 25/50 mg; details: both, plasma
[16] = as §2; format: ADME, organism-based; design: dietary status Fasting, dose 25 mg, dosed compound id 2.46815e+06, dosed compound name Diclofenac potassium, gender Mixed, regimen Single, route oral, study doses 25/50 mg; details: both, plasma
[17] = Mean Cmax value of diclofenac following single oral dosing of 35 mg Zorvolex capsule in healthy human; format: ADME, organism-based; design: dietary status Fed, dose 35 mg, dosed compound id 2.46815e+06, dosed compound name Diclofenac, gender Mixed, regimen Single, route oral; details: both, plasma
[18] = (§3) Mean Kel of diclofenac potassium following oral dosing of PRO-513 50 mg sachet in healthy human; format: ADME, organism-based; design: dietary status Fasting, dose 50 mg, dosed compound id 2.46815e+06, dosed compound name Diclofenac potassium, gender Mixed, regimen Single, route oral, study doses 50 mg; details: both, plasma
[19] = Mean apparent terminal elimination rate constant value of diclofenac following single oral dosing of 35 mg Zorvolex capsule in healthy human; format: ADME, organism-based, Plasma; design: dietary status Fasting, dose 35 mg, dosed compound id 2.46815e+06, dosed compound name Diclofenac, gender Mixed, regimen Single, route oral; details: in vivo
[20] = Geometric mean for AUC (0-infinity) of diclofenac following single oral dosing of 18 mg Zorvolex capsule in healthy human; format: ADME, organism-based; design: time infinity, dietary status Fasting, dose 18 mg, dosed compound id 2.46815e+06, dosed compound name Diclofenac, gender Mixed, regimen Single, route oral; details: both, plasma, read-out: AUC (0-infinity)
clinical = details: both, human, plasma, po, 50 mg
[21] = as §3; format: ADME, organism-based; design: dietary status Fed, dose 50 mg, dosed compound id 2.46815e+06, dosed compound name Diclofenac potassium, gender Mixed, regimen Single, route oral, study doses 50 mg; details: both, plasma
[22] = Mean AUC(0-t) of diclofenac potassium following oral dosing of PRO-513 50 mg sachet in healthy human; format: ADME, organism-based; design: dietary status Fasting, dose 50 mg, dosed compound id 2.46815e+06, dosed compound name Diclofenac potassium, gender Mixed, regimen Single, route oral, study doses 50 mg; details: both, plasma
[23] = Mean AUC(0-infinity) of diclofenac potassium following oral dosing of Cataflam 50 mf tablet in healthy human; format: ADME, organism-based; design: time infinity, dietary status Fasting, dose 50 mg, dosed compound id 2.46815e+06, dosed compound name Diclofenac potassium, gender Mixed, regimen Single, route oral, study doses 50 mg; details: both, plasma, 50 mg, read-out: AUC(0-infinity)
[24] = Median tmax of diclofenac following single oral dosing of 50 mg Cataflam tablet in healthy human; format: ADME, organism-based; design: dietary status Fasting, dose 50 mg, dosed compound id 2.46815e+06, dosed compound name Diclofenac potassium, gender Mixed, regimen Single, route oral; details: both, plasma, read-out: Median Tmax
[25] = as §1; format: ADME, organism-based, Plasma; design: dietary status Fed, dose 50 mg, dosed compound id 2.46815e+06, dosed compound name Diclofenac potassium, gender Mixed, regimen Single, route oral; details: in vivo
[26] = Mean Tmax of diclofenac following single oral dosing of 50 mg Cataflam in healthy human; format: ADME, organism-based; design: dietary status Fasting, dose 50 mg, dosed compound id 2.46815e+06, dosed compound name Diclofenac potassium, gender Mixed, regimen Single, route oral, study doses 50 mg; details: both, plasma
[27] = Geometric mean for Cmax of diclofenac following single oral dosing of 50 mg Cataflam tablet in healthy human; format: ADME, organism-based; design: dietary status Fasting, dose 50 mg, dosed compound id 2.46815e+06, dosed compound name Diclofenac potassium, gender Mixed, regimen Single, route oral; details: both, plasma
[28] = Mean AUC (0-infinity) value of diclofenac following single oral dosing of 50 mg Cataflam tablet in healthy human; format: ADME, organism-based; design: time infinity, dietary status Fasting, dose 50 mg, dosed compound id 2.46815e+06, dosed compound name Diclofenac potassium, gender Mixed, regimen Single, route oral; details: both, plasma, read-out: AUC (0-infinity)
[29] = Mean AUC(0-infinity) of diclofenac potassium following oral dosing of PRO-513 50 mg sachet in healthy human; format: ADME, organism-based; design: time infinity, dietary status Fasting, dose 50 mg, dosed compound id 2.46815e+06, dosed compound name Diclofenac potassium, gender Mixed, regimen Single, route oral, study doses 50 mg; details: both, plasma, read-out: AUC(0-infinity)
[30] = Mean Kel of diclofenac potassium following oral dosing of Cataflam 50 mf tablet in healthy human; format: ADME, organism-based; design: dietary status Fed, dose 50 mg, dosed compound id 2.46815e+06, dosed compound name Diclofenac potassium, gender Mixed, regimen Single, route oral, study doses 50 mg; details: both, plasma, 50 mg

SMILES: O=C(O)Cc1ccccc1Nc1c(Cl)cccc1Cl [DICLOFENAC]
- Cmax [1]: 2040 ng/mL
- AUC(0-t) [2]: 837 ng·h/mL
- Tmax [3]: 1 h
- AUC(0-inf) [4]: 852 ng·h/mL
- AUC(0-t) [5]: 1290 ng·h/mL
- AUC(0-inf) [6]: 876 ng·h/mL
- lambda-z [7]: 0.318 h⁻¹
- Maximum Tmax [8]: 10 h
- AUC(0-inf) [9]: 706 ng·h/mL
- Tmax [10]: 1 h
- AUC(0-inf) [11]: 1140 ng·h/mL
- Minimum Tmax [12]: 0.5 h
- Cmax [13]: 1160 ng/mL
- AUC (0-infinity) [14]: 1301.961 ng·h/mL
- AUC(0-t) [15]: 680 ng·h/mL
- AUC(0-t) [16]: 691 ng·h/mL
- Cmax [17]: 355 ng/mL
- k el [18]: 0.000156 s⁻¹
- lambda-z [19]: 0.349 h⁻¹
- AUC(0-inf) [20]: 487 ng·h/mL
- half-life (clinical): 1.35 h
- k el [21]: 0.000108 s⁻¹
- AUC(0-t) [22]: 1240 ng·h/mL
- AUC(0-inf) [23]: 1100 ng·h/mL
- Tmax [24]: 1 h
- lambda-z [25]: 0.318 h⁻¹
- Tmax [26]: 0.93 h
- Cmax [27]: 1090 ng/mL
- AUC(0-inf) [28]: 1330 ng·h/mL
- AUC(0-inf) [29]: 1250 ng·h/mL
- k el [30]: 0.000136 s⁻¹
